We go through 6 compounds from paper PMC6706138, “IL-6–HaloTag® enables live-cell plasma membrane staining, flow cytometry, functional expression, and de-orphaning of recombinant odorant receptors” (Journal of Biological Methods, 2017).

Holding throughout (type): cell-based
One experiment deals with T1, OR2W1 (Homo sapiens, UniProt Q9Y3N9).
T1 construct: full coding region amplified from human genomic DNA, N-terminal IL-6-HaloTag kept, transient in NxG 108CC15 cells with RTP1S, G-alpha-olf, G-gamma-13, GloSensor-22F
T1 sequence (Q9Y3N9 1-320): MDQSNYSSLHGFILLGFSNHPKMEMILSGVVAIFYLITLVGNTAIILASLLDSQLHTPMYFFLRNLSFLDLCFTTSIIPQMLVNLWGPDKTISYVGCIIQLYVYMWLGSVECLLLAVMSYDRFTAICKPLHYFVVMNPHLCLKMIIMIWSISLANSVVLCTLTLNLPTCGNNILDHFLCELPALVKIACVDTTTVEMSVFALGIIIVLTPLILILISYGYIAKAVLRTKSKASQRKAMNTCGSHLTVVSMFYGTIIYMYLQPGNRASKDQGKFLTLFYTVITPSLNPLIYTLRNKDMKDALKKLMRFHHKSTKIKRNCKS
Description: GloSensor cAMP luminescence. The text has this:
GloSensor cAMP luminescence on OR2W1

In experiment [1] the target is T2, OR1A1 (Homo sapiens, UniProt Q9P1Q5).
T2 construct: full coding region amplified from human genomic DNA, N-terminal IL-6-HaloTag kept, transient in NxG 108CC15 cells with RTP1S, G-alpha-olf, G-gamma-13, GloSensor-22F
T2 sequence (Q9P1Q5 1-309): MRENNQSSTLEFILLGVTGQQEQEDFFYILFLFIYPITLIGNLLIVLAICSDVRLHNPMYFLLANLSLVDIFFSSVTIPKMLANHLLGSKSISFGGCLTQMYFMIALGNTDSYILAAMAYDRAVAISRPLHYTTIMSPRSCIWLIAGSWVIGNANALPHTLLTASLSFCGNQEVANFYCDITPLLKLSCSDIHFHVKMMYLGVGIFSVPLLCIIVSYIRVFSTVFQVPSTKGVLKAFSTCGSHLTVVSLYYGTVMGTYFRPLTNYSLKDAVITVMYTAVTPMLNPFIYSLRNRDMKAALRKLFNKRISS
Description: GloSensor cAMP luminescence, single-concentration screen. The settings on record: IL-6-HaloTag construct, NxG […]CC15 cells, n = […] in duplicates, agonist.

The next experiment concerns the target T3, OR2M3 (Homo sapiens, UniProt Q8NG83).
T3 construct: full coding region amplified from human genomic DNA, N-terminal IL-6-HaloTag kept, transient in NxG 108CC15 cells with RTP1S, G-alpha-olf, G-gamma-13, GloSensor-22F
T3 sequence (Q8NG83 1-312): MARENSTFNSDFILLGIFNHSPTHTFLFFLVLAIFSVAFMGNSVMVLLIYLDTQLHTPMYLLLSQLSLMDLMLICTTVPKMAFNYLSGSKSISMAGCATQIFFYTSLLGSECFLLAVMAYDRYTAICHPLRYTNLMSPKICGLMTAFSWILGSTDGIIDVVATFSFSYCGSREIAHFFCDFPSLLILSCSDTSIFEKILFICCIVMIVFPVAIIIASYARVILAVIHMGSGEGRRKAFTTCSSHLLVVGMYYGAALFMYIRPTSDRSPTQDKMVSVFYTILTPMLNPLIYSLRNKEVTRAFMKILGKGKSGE
Briefly: GloSensor cAMP luminescence. The conditions noted are these: IL-6-HaloTag construct, NxG […]CC15 cells, pH […] DMSO, RTP1S/Gαolf/Gγ[…] co-transfected; agonist; read-out: IL-6-HaloTag®-receptor / EC50. An excerpt: GloSensor cAMP luminescence on OR2M3

A further experiment deals with T4, OR51E1 (Homo sapiens, UniProt Q8TCB6).
T4 construct: full coding region amplified from human genomic DNA, N-terminal IL-6-HaloTag kept, transient in NxG 108CC15 cells with RTP1S, G-alpha-olf, G-gamma-13, GloSensor-22F
T4 sequence (Q8TCB6 1-318): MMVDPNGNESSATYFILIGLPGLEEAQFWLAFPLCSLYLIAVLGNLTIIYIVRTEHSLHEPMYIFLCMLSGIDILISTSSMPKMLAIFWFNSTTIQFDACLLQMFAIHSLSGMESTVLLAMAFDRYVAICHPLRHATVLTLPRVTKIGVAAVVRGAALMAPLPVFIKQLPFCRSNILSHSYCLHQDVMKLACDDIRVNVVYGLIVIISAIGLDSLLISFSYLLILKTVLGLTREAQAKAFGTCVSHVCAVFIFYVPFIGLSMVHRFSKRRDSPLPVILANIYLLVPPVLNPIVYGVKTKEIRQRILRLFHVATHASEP
Description: GloSensor cAMP luminescence. The settings on record: read-out: IL-6-HaloTag®-receptor / EC50. The text has this: GloSensor cAMP luminescence on OR51E1

Another experiment has as its target T5, OR8D1 (Homo sapiens, UniProt Q8WZ84).
T5 construct: full coding region amplified from human genomic DNA, N-terminal IL-6-HaloTag kept, transient in NxG 108CC15 cells with RTP1S, G-alpha-olf, G-gamma-13, GloSensor-22F
T5 sequence (Q8WZ84 1-308): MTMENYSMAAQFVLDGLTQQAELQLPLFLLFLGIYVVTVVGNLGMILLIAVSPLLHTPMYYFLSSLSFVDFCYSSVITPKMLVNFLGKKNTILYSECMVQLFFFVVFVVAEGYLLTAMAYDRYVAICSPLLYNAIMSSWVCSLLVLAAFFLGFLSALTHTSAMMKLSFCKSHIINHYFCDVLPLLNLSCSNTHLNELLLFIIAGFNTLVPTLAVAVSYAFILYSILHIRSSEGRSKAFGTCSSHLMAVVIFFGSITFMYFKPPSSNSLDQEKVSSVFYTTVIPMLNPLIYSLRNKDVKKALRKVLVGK
Briefly: GloSensor cAMP luminescence. An excerpt:
GloSensor cAMP luminescence on OR8D1

Experiment [2] deals with T2, OR1A1. Briefly: GloSensor cAMP luminescence. The conditions noted are these: read-out: IL-6-HaloTag®-receptor / EC50. An excerpt: GloSensor cAMP luminescence on OR1A1
The next experiment has as its target T6, OR10J5 (Homo sapiens, UniProt Q8NHC4).
T6 construct: full coding region amplified from human genomic DNA, N-terminal IL-6-HaloTag kept, transient in NxG 108CC15 cells with RTP1S, G-alpha-olf, G-gamma-13, GloSensor-22F
T6 sequence (Q8NHC4 1-309): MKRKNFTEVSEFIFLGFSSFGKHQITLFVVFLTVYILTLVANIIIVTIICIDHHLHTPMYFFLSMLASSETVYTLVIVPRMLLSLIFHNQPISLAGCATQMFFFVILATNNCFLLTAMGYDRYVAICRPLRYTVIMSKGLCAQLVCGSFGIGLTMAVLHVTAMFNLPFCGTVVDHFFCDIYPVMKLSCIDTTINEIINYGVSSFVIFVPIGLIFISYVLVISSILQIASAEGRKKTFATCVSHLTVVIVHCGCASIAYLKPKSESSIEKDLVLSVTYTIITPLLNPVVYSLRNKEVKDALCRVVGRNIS
Description: GloSensor cAMP luminescence. The conditions noted are these: read-out: IL-6-HaloTag®-receptor / EC50. The text has this:
GloSensor cAMP luminescence on OR10J5

The next experiment addresses T7, Olfr16 (Mus musculus, UniProt Q62007).
T7 construct: gene Or10j5; full coding region amplified from mouse genomic DNA, N-terminal IL-6-HaloTag kept, transient in NxG 108CC15 cells with RTP1S, G-alpha-olf, G-gamma-13, GloSensor-22F
T7 sequence (Q62007 1-309): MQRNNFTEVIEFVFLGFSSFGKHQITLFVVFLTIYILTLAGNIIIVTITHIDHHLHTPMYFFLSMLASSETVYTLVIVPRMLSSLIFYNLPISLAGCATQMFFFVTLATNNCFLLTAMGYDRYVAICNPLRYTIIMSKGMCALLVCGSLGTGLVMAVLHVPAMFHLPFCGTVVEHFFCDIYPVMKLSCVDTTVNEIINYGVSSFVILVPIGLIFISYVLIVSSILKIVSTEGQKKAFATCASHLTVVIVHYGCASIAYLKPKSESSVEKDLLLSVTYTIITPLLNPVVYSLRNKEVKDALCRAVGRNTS
Briefly: GloSensor cAMP luminescence. The settings on record: read-out: IL-6-HaloTag®-receptor / EC50. An excerpt: GloSensor cAMP luminescence on Olfr16

Take `C=CCOC(=O)Cc1ccccc1` [allyl phenyl acetate]: the EC50 at OR2W1 turned out to be 27 ± 1.37 µM. Moreover, the “GloSensor cAMP luminescence, single-concentration screen” value on OR1A1 [1] was “allyl phenyl acetate best activated OR1A1 and OR2W1”. As to `CCC(S)C(C)CO` (centres unmarked) [3-mercapto-2-methylpentan-1-ol], the EC50 at OR2M3 was found to be 1.08 ± 1.16 µM.

Consider `CCCC(=O)O` [butyric acid], for which the EC50 at OR51E1 was found to be 95.6 ± 33.4 µM.

The compound `CC1=C(O)C(=O)OC1C` (centres unmarked) [sotolone] showed an EC50 on OR8D1 of 1.81 ± 0.19 µM. For the compound `C=C(C)[C@@H]1CC=C(C)C(=O)C1` [(R)-(-)-carvone], the EC50 at OR1A1 [2] amounted to 7.66 ± 4.75 µM. `CC(C)(O)CCCC1=CCC(C=O)CC1` (centres unmarked) [lyral]: the EC50 at OR10J5 came out at 16.3 ± 1.05 µM; on Olfr16, 34 ± 2.21 µM.
